Data as given in ChEMBL document CHEMBL5241063, “Synthetic and medicinal perspective of quinolines as antiviral agents” (Eur J Med Chem, 2021).

Experiments:
Ebolavirus = experiment: Antiviral activity against recombinant VSV-deltaG pseudotyped GFP-tagged EBOV infected in human Huh-7 cells preincubated with cells for 1 hr followed by viral infection and measured after 16 hrs by […] assay; type: functional, organism-based; conditions: Orthoebolavirus
[1] = Selectivity index, ratio of CC50 for cytotoxicity against human Huh-7 cells to IC50 for antiviral activity against recombinant VSV-deltaG pseudotyped GFP-tagged EBOV infected in human Huh-7 cells; type: toxicity, cell-based; conditions: read-out: Ratio CC50/IC50
[2] = system: Human immunodeficiency virus 1; experiment: Antiviral activity against HIV-1 infected in human H9 cells assessed as inhibition of viral replication; type: functional, organism-based; conditions: Human immunodeficiency virus 1, H9
[3] = Cytotoxicity against human RD cells by neutral red method; type: toxicity, cell-based
[4] = Inhibition of HIV-1 integrase; parameters: species or system Human immunodeficiency virus 1
[5] = system: Human immunodeficiency virus 1; experiment: Antiviral activity against HIV-1 IIIB infected in human MT2 cells assessed as inhibition of viral replication by p24 ELISA method; type: functional, organism-based; conditions: Human immunodeficiency virus 1, IIIB
[6] = system: Human immunodeficiency virus 1; experiment: Antiviral activity against HIV-1 92US657 infected in human MT2 cells assessed as inhibition of viral infection; type: functional, organism-based; conditions: Human immunodeficiency virus 1, 92US657, MT2
[7] = Cytotoxicity against african green monkey Vero E6 cells by CCK8 assay; type: toxicity, cell-based, Vero C1008; conditions: chlorocebus sabaeus
[8] = target: Human immunodeficiency virus type 1 reverse transcriptase (Human immunodeficiency virus 1, UniProt Q72547); experiment: Inhibition of HIV-1 reverse transcriptase incubated for 90 mins by liquid scintillation counting analysis
enterovirus D68 = experiment: Antiviral activity against Enterovirus D68 US/KY/14-18953 infected in human RD cells assessed as reduction in virus induced cytopathic effect; type: functional, organism-based; conditions: Enterovirus D, US/KY/14-18953, RD
[9] = Selectivity index, ratio of CC50 for cytotoxicity against human RD cells to EC50 for antiviral activity against Enterovirus D68 US/KY/14-18953 infected in human RD cells; type: toxicity, cell-based; conditions: read-out: Ratio CC50/EC50
[10] = system: Human immunodeficiency virus 1; experiment: Antiviral activity against HIV-1 infected in human HeLa P4 cells assessed as inhibition of viral particles production; type: functional, organism-based; conditions: Human immunodeficiency virus 1, HeLaP4
dengue virus type 2 = experiment: Antiviral activity against Dengue virus serotype 2 infected in african green monkey Vero cells assessed as reduction in virus yield preincubated for 1 hr followed by replacement with medium containing compounds and measured after 48 hrs by crystal violet staining based plaque assay; type: functional, organism-based
[11] = Cytotoxicity against african green monkey Vero cells incubated for 48 hrs by CellTiter-Glo luminescence based assay; type: toxicity, cell-based; conditions: chlorocebus sabaeus
[12] = Cytotoxicity against human CEM-SS cells assessed as inhibition of cell growth; type: toxicity, cell-based
SNB-19 = experiment: Cytotoxicity against human SNB-19 cells incubated for 24 hrs; type: toxicity, cell-based; conditions: snb-19, 24 h
[13] = system: Human immunodeficiency virus 1; experiment: Antiviral activity against HIV-1 infected in human CEM-SS cells assessed as reduction in virus induced cytopathic effect by XTT assay; type: functional, organism-based; conditions: Human immunodeficiency virus 1, CEM-SS
[14] = system: Human immunodeficiency virus 1; experiment: Anti-HIV activity against HIV-1 NL4.3 infected in human MT2 cells measured after 7 days by MTT assay; type: functional, organism-based; conditions: Human immunodeficiency virus 1, NL4.3, MT2, 168 h

CCN(CC)Cc1cc(Nc2ccnc3cc(I)ccc23)ccc1O
IC50 (Ebolavirus): 640 nM | selectivity ratio [1]: > 130

COc1c2ccoc2nc2c(OC)cccc12 [GAMMA-FAGARINE]
EC50 [2]: < 5850 nM

CCN(CC)CCNC(=O)c1cc(OC(C)C)nc2ccccc12
CC50 [3]: 11200 nM

O=C(NCc1ccc(O)c(O)c1)c1ccc2ccc(C(=O)O)c(O)c2n1
IC50 [4]: 5000 nM

COc1ccc2nc(OC)c(/C=C3\NC(=O)N(CCc4ccccc4)C3=O)cc2c1
EC50 [5]: 1510 nM | EC50 [6]: 520 nM

Cc1cccc2cc(/C=C3\NC(=O)N(CCc4ccccc4)C3=O)c(Cl)nc12
EC50 [5]: 500 nM | EC50 [6]: 520 nM

CCN(CC)CCCC(C)Nc1ccnc2cc(Cl)ccc12 (configuration not stated) [CHLOROQUINE]
CC50 [7]: 250000 nM

COc1cc(/C=C/c2ccc3ccc(C(=O)O)c(O)c3n2)cc(O)c1O
IC50 [4]: 700 nM

CC(C)[C@H]1C(=O)OC[C@@H](NC(=O)c2nc3ccccc3cc2O)C(=O)N2CCCC[C@H]2C(=O)NCC(=O)N(C)CC(=O)N(C)[C@@H](C(C)C)C(=O)OC[C@@H](NC(=O)c2nc3ccccc3cc2O)C(=O)N2CCCC[C@H]2C(=O)NCC(=O)N(C)CC(=O)N1C
IC50 [8]: 0.13 nM

CN(C)CCNC(=O)c1cc(Oc2ccccc2)nc2ccccc12
EC50 (enterovirus D68): 400 nM | CC50 [3]: 73700 nM | selectivity ratio [9]: 184

COc1cc(/C=C/c2ccc3c(C(=O)O)cc(C(=O)O)c(O)c3c2)cc(O)c1O
IC50 [10]: 1600 nM

CC(C)Cc1ccc2c(Cl)cc(Cl)c(O)c2n1
IC50 (dengue virus type 2): 490 nM | CC50 at 48 h [11]: 19400 nM

COc1nc2ccccc2cc1/C=C1\NC(=O)N(CCc2ccccc2)C1=O
EC50 [5]: 420 nM | EC50 [6]: 520 nM

C=CC(C)(C)C1(CC=C(C)C)C(=O)Nc2ccccc2C1=O (configuration not stated) [BUCHAPINE]
IC50 [12]: 29000 nM

CCCCCCNCc1cc(Nc2ccnc3cc(Cl)ccc23)ccc1O
IC50 (Ebolavirus): 290 nM

CN(C)CCNC(=O)c1cc(Oc2ccccc2)nc2ccc(Cl)cc12
EC50 (enterovirus D68): 1200 nM

CC(C)Oc1ccc2cc(/C=C3\NC(=O)N(CCc4ccccc4)C3=O)c(Cl)nc2c1
EC50 [5]: 330 nM | EC50 [6]: 520 nM

Cc1ccc2cc(/C=C3\NC(=O)N(CCc4ccccc4)C3=O)c(Cl)nc2c1
EC50 [5]: 2550 nM | EC50 [6]: 520 nM

O=C1N/C(=C\c2cccc3ccccc23)C(=O)N1CCc1ccccc1
EC50 [5]: 1930 nM | EC50 [6]: 520 nM

Cc1ccc2nc(Cl)c(/C=C3\NC(=O)N(CCc4ccccc4)C3=O)cc2c1
EC50 [5]: 22800 nM | EC50 [6]: 500 nM

C=C1CC[C@@H]2[C@](C)(CO)[C@H](O)CC[C@@]2(C)[C@@H]1C/C=C1/C(=O)OC[C@@H]1Oc1cccc2ccc(C)nc12
CC50 (SNB-19): > 100000 nM

C=CC(C)(C)C1(CC=C(C)C)C(=O)Nc2ccccc2C1OCC=C(C)C (configuration not stated)
EC50 [13]: 1640 nM | IC50 [12]: 26900 nM

COc1cc(NC(=O)c2ccc3ccc(C(=O)O)c(O)c3n2)cc(O)c1O
IC50 [4]: 6500 nM

O=C(NCCN1CCCC1)c1cc(Oc2cccs2)nc2ccccc12
EC50 (enterovirus D68): 60 nM | selectivity ratio [9]: > 600

O=C(NNc1ccc([N+](=O)[O-])cc1[N+](=O)[O-])c1ccc2ccc(C(=O)O)c(O)c2n1
IC50 [4]: 3000 nM

CCN(CCO)CCCC(C)Nc1ccnc2cc(Cl)ccc12 (configuration not stated) [HYDROXYCHLOROQUINE]
CC50 [7]: 273000 nM

COc1cc(OC)c2ccc(-c3cccc([N+](=O)[O-])c3)nc2c1
IC50 [14]: 18500 nM

O=C1N/C(=C\c2cc3ccccc3nc2Cl)C(=O)N1Cc1ccccc1
EC50 [5]: 50600 nM | EC50 [6]: 520 nM
